Results: patent US4335249A, “Herbicidal diphenyl ethers, sulfides, sulfoxides and sulfones” (Rohm and Haas Company, priority 1976, dated 1982)

Key:
Type in all cases: in vivo
[1] = test system: barnyardgrass (Echinochloa crusgalli); assay: Preemergence herbicidal activity, barnyardgrass; conditions: Echinochloa crus-galli, pre-emergence, 336 h; Pre, 2 lb/A
Protocol: (§1) Using the procedure described below, compounds of the invention are evaluated for control of several of the following plant species:
(§2) The following est procedure is employed. Seeds of selected crops and weeds are planted in soil in flats. For preemergence tests, the flats are treated with the test compound immediately after the planting. For postemergence tests, the seeds are allowed to germinate, and after two weeks the flats are treated with the test compound. The compound to be evaluated is dissolved in acetone, diluted with water, and sprayed over the flats using a carrier volume equivalent to 50 gallons per acre at the rate of application (pounds per acre, lb/A.) specified in the tables.

[2] = test system: foxtail (Setaria spp.); assay: Preemergence herbicidal activity, foxtail; conditions: Setaria, pre-emergence, 336 h; Pre, 2 lb/A
Protocol: as §1
as §2, with “tables. About two weeks after the application of the test compound, the state of growth of the plants is observed and the phytotoxic effect of the compound is evaluated. Tables III and IV give the average percent control achieved by test compounds in terms of the percent of the plants which are killed by the compounds.” for “tables.”

[3] = test system: velvetleaf (Abutilon theophrasti); assay: Preemergence herbicidal activity, velvetleaf; conditions: Abutilon theophrasti, pre-emergence, 336 h; Pre, 2 lb/A
Protocol: as §1
as §2, with “tables. About two weeks after the application of the test compound, the state of growth of the plants is observed and the phytotoxic effect of the compound is evaluated. Tables III and IV give the average percent control achieved by test compounds in terms of the percent of the plants which are killed by the compounds.” for “tables.”

[4] = test system: tomato (Lycopersicon esculentum); assay: Preemergence herbicidal activity, tomato; conditions: Solanum lycopersicum, pre-emergence, 336 h; Pre, 2 lb/A
Protocol: as §1
as §2, with “tables. About two weeks after the application of the test compound, the state of growth of the plants is observed and the phytotoxic effect of the compound is evaluated. Tables III and IV give the average percent control achieved by test compounds in terms of the percent of the plants which are killed by the compounds.” for “tables.”

[5] = test system: cocklebur (Xanthium pensylvanicum); assay: Postemergence herbicidal activity, cocklebur; conditions: Xanthium strumarium, post-emergence, 336 h, 2 lb/A
Protocol: as §1
as §2, with “tables. About two weeks after the application of the test compound, the state of growth of the plants is observed and the phytotoxic effect of the compound is evaluated. Tables III and IV give the average percent control achieved by test compounds in terms of the percent of the plants which are killed by the compounds.” for “tables.”

[6] = test system: downybrome (Bromus tectorum); assay: Postemergence herbicidal activity, downybrome; conditions: Bromus tectorum, post-emergence, 336 h, Post, 2 lb/A
Protocol: as §1
as §2, with “tables. About two weeks after the application of the test compound, the state of growth of the plants is observed and the phytotoxic effect of the compound is evaluated. Tables III and IV give the average percent control achieved by test compounds in terms of the percent of the plants which are killed by the compounds.” for “tables.”

[7] = test system: marigold (Tagetes spp.); assay: Preemergence herbicidal activity, marigold; conditions: pre-emergence, 336 h, 2 lb/A
Protocol: as §1
as §2, with “tables. About two weeks after the application of the test compound, the state of growth of the plants is observed and the phytotoxic effect of the compound is evaluated. Tables III and IV give the average percent control achieved by test compounds in terms of the percent of the plants which are killed by the compounds.” for “tables.”

[8] = test system: foxtail (Setaria spp.); assay: Postemergence herbicidal activity, foxtail; conditions: Setaria, post-emergence, 336 h, Post, 2 lb/A
Protocol: as §1
as §2, with “tables. About two weeks after the application of the test compound, the state of growth of the plants is observed and the phytotoxic effect of the compound is evaluated. Tables III and IV give the average percent control achieved by test compounds in terms of the percent of the plants which are killed by the compounds.” for “tables.”

[9] = test system: yellow nutsedge (Cyperus esculentus); assay: Preemergence herbicidal activity, yellow nutsedge; conditions: Cyperus, pre-emergence, 336 h, 2 lb/A
Protocol: as §1
as §2, with “tables. About two weeks after the application of the test compound, the state of growth of the plants is observed and the phytotoxic effect of the compound is evaluated. Tables III and IV give the average percent control achieved by test compounds in terms of the percent of the plants which are killed by the compounds.” for “tables.”

[10] = test system: downybrome (Bromus tectorum); assay: Preemergence herbicidal activity, downybrome; conditions: Bromus tectorum, pre-emergence, 336 h, Pre, 2 lb/A
Protocol: as §1
as §2, with “tables. About two weeks after the application of the test compound, the state of growth of the plants is observed and the phytotoxic effect of the compound is evaluated. Tables III and IV give the average percent control achieved by test compounds in terms of the percent of the plants which are killed by the compounds.” for “tables.”

[11] = test system: tomato (Lycopersicon esculentum); assay: Postemergence herbicidal activity, tomato; conditions: Solanum lycopersicum, post-emergence, 336 h, Post, 2 lb/A
Protocol: as §1
as §2, with “tables. About two weeks after the application of the test compound, the state of growth of the plants is observed and the phytotoxic effect of the compound is evaluated. Tables III and IV give the average percent control achieved by test compounds in terms of the percent of the plants which are killed by the compounds.” for “tables.”

[12] = test system: morningglory (Ipomoca spp.); assay: Preemergence herbicidal activity, morningglory; conditions: Ipomoea, pre-emergence, 336 h, 2 lb/A
Protocol: as §1
as §2, with “tables. About two weeks after the application of the test compound, the state of growth of the plants is observed and the phytotoxic effect of the compound is evaluated. Tables III and IV give the average percent control achieved by test compounds in terms of the percent of the plants which are killed by the compounds.” for “tables.”

[13] = test system: velvetleaf (Abutilon theophrasti); assay: Postemergence herbicidal activity, velvetleaf; conditions: Abutilon theophrasti, post-emergence, 336 h, 2 lb/A
Protocol: as §1, §2

[14] = test system: wild oats (Avena fatua); assay: Postemergence herbicidal activity, wild oats; conditions: Avena fatua, post-emergence, 336 h, Post, 2 lb/A; read-out: % control, Wild oat
Protocol: as §1
as §2, with “tables. About two weeks after the application of the test compound, the state of growth of the plants is observed and the phytotoxic effect of the compound is evaluated. Tables III and IV give the average percent control achieved by test compounds in terms of the percent of the plants which are killed by the compounds.” for “tables.”

[15] = test system: yellow nutsedge (Cyperus esculentus); assay: Postemergence herbicidal activity, yellow nutsedge; conditions: Cyperus, post-emergence, 336 h, 2 lb/A
Protocol: as §1
as §2, with “tables. About two weeks after the application of the test compound, the state of growth of the plants is observed and the phytotoxic effect of the compound is evaluated. Tables III and IV give the average percent control achieved by test compounds in terms of the percent of the plants which are killed by the compounds.” for “tables.”

[16] = test system: morningglory (Ipomoca spp.); assay: Postemergence herbicidal activity, morningglory; conditions: Ipomoea, post-emergence, 336 h, 2 lb/A
Protocol: as §1
as §2, with “tables. About two weeks after the application of the test compound, the state of growth of the plants is observed and the phytotoxic effect of the compound is evaluated. Tables III and IV give the average percent control achieved by test compounds in terms of the percent of the plants which are killed by the compounds.” for “tables.”

[17] = test system: wild oats (Avena fatua); assay: Preemergence herbicidal activity, wild oats; conditions: Avena fatua, pre-emergence, 336 h, Pre, 2 lb/A; read-out: % control, Wild oat
Protocol: as §1
as §2, with “tables. About two weeks after the application of the test compound, the state of growth of the plants is observed and the phytotoxic effect of the compound is evaluated. Tables III and IV give the average percent control achieved by test compounds in terms of the percent of the plants which are killed by the compounds.” for “tables.”

[18] = test system: cocklebur (Xanthium pensylvanicum); assay: Preemergence herbicidal activity, cocklebur; conditions: Xanthium strumarium, pre-emergence, 336 h, 2 lb/A
Protocol: as §1
as §2, with “tables. About two weeks after the application of the test compound, the state of growth of the plants is observed and the phytotoxic effect of the compound is evaluated. Tables III and IV give the average percent control achieved by test compounds in terms of the percent of the plants which are killed by the compounds.” for “tables.”

[19] = test system: barnyardgrass (Echinochloa crusgalli); assay: Postemergence herbicidal activity, barnyardgrass; conditions: Echinochloa crus-galli, post-emergence, 336 h; Post, 2 lb/A
Protocol: as §1, §2

[20] = test system: marigold (Tagetes spp.); assay: Postemergence herbicidal activity, marigold; conditions: post-emergence, 336 h, 2 lb/A
Protocol: as §1
as §2, with “tables. About two weeks after the application of the test compound, the state of growth of the plants is observed and the phytotoxic effect of the compound is evaluated. Tables III and IV give the average percent control achieved by test compounds in terms of the percent of the plants which are killed by the compounds.” for “tables.”

SMILES | pest or weed control at 2241.7 g/ha [1] [%] | pest or weed control at 2241.7 g/ha [2] [%] | pest or weed control at 2241.7 g/ha [3] [%] | pest or weed control at 2241.7 g/ha [4] [%] | pest or weed control at 2241.7 g/ha [5] [%] | pest or weed control at 2241.7 g/ha [6] [%] | pest or weed control at 2241.7 g/ha [7] [%] | pest or weed control at 2241.7 g/ha [8] [%] | pest or weed control at 2241.7 g/ha [9] [%] | pest or weed control at 2241.7 g/ha [10] [%] | pest or weed control at 2241.7 g/ha [11] [%] | pest or weed control at 2241.7 g/ha [12] [%] | pest or weed control at 2241.7 g/ha [13] [%] | pest or weed control at 2241.7 g/ha [14] [%] | pest or weed control at 2241.7 g/ha [15] [%] | pest or weed control at 2241.7 g/ha [16] [%] | pest or weed control at 2241.7 g/ha [17] [%] | pest or weed control at 2241.7 g/ha [18] [%] | pest or weed control at 2241.7 g/ha [19] [%] | pest or weed control at 2241.7 g/ha [20] [%]
CC(C)OC(=O)C(C)Oc1ccc(Oc2ccc(C(F)(F)F)cc2Cl)cc1 (stereo not shown) [Example 22] | 100 | 100 | 0 | 0 | 30 | 99 | 0 | 100 | 0 | 95 | 99 | 0 | 40 | 100 | 0 | 20 | 60 | 0 | 100 | 30
CC(Oc1ccc(Oc2ccc(C(F)(F)F)cc2Cl)cc1)C(=O)OCCN(C)C (stereo not shown) [Example 31] | 100 | 100 | 0 | 0 | 60 | 100 | 0 | 100 | 0 | 30 | 90 | 70 | 80 | 99 | 0 | 80 | 40 | 0 | 100 | 40
